Measured values taken from PMC9038752, “Molecular mechanisms of bifunctional vitamin D receptor agonist-histone deacetylase inhibitor hybrid molecules in triple-negative breast cancer” (Scientific Reports, 2022).
Values after ≈ are worked out from the molar mass of the structure shown.

Columns and labels:
[1] = system: 4T1 cells; assay: RealTime-Glo MT cell viability assay, 4T1; assay type: cell-based, mouse; settings: 24 h
Experimental: (§1) Figure 5 (a) and (b) Analysis of induced Cyp24a1 expression in 4TO7 (a) and 4T1 (b) cells to test for VDR agonism of DK-406 and heterocyclic analogues after 24 h treatment. c-e. Analysis of the cytotoxicity of hybrid compounds after 24 h using the MTGlo assay (see Methods for details) in 4TO7 (c), 4T1 (d) and MDA-MB-231 (e) cells. […] Each condition was compared to control. *: p ≤ 0.05, **: p ≤ 0.01, ***: p ≤ 0.001, ****: p ≤ 0.0001, ns: not significant.
(§2) As previously, we were interested in studying the efficacy of hybrids in models of TNBC. We used the 4T1 cell line[20] as well as the related TNBC cell line 4TO7, which was derived from the same mouse tumor as 4T1 cells in Balb/c mice[33]. 4TO7 cells readily form primary tumors. […] These lines also have the advantage that anti-tumor efficacy studies can be performed in Balb/c mice, which have intact immune systems. Compounds were initially tested for VDR agonist activity in 4TO7 cells by screening induction of the VDR target gene Cyp24a1. […]
(§3) The assay was performed to assess cell viability in order to determine analogue cytotoxicity. […] Luminescence was measured using a 1420 Luminescence Counter Victor Light (PerkinElmer), normalized to control, and plotted. […]

[2] = Aqueous solubility after sonication; assay type: physicochemical; settings: after sonication for 30 min
From the text: The synthesis of the B-ring series mirrored that of the A-ring series producing B-ring hybrids AM-191 (n = 1, 27a), AM-192 (n = 3, 27b), and AM-193 (n = 5, 27c) in 9 steps (Fig. 3).

[3] = system: 4TO7 cells; assay: RealTime-Glo MT cell viability assay, 4TO7; assay type: cell-based, mouse; settings: 24 h
Experimental: as §1, §2, §3

[4] = system: MB-MDA231 cells; assay: RealTime-Glo MT cell viability assay, MB-MDA231; assay type: cell-based; settings: human TNBC cell line MB-MDA231, 24 h
Experimental: as §1, §2, §3

[5] = system: 4T1 mouse model of triple negative breast cancer; design: method as in PMID 28847749; settings: aggressive 4T1 mouse model of TNBC; cited from earlier work

Row | higher solubility in water compared to DK-367 [2] [%] | solubility at 30 min ([2]; water) [µg/mL] | SMILES | cytotoxicity (MT-Glo viability) [1] | potency in MT-Glo assay relative to DK-406 [1] | cytotoxicity (MT-Glo viability) [3] | potency in MT-Glo assay relative to DK-406 [3] | cytotoxicity (MT-Glo viability) [4] | tumor growth and metastasis [5]
1 | 27 | 2.43 (≈ 4.85 µM) | CCC(CC)(c1ccc(OCCCCCC(=O)NO)cc1)c1ccc(OCC(O)C(C)(C)C)c(C)n1 (centres unmarked) [AM-193] | most potent compound tested | at least tenfold | most potent compound tested | at least tenfold | potency of AM-193 as a cytotoxic agent was also confirmed | –
2 | – | – | CCC(CC)(c1ccc(C(=O)NCCCCCC(=O)NO)cc1)c1ccc(OCC(O)C(C)(C)C)c(C)c1 (centres unmarked) [DK-406] | – | – | – | – | – | reduced tumor growth and metastasis
